From paper PMC3362575, “Synthesis and Biological Evaluation of Phenanthrenes as Cytotoxic Agents with Pharmacophore Modeling and ChemGPS-NP Prediction as Topo II Inhibitors” (PLoS ONE, 2012) come the findings set out here.

Values after ≈ are worked out from the molar mass of the structure shown.

Common to all, as to format: cell-based, human
One assay concerns HepG2. The assay can be described thus: MTT cytotoxicity assay, HepG2. The settings on record: Homo sapiens. As for the experimental part:
(§1) The cytotoxic assay of 11 naturally occurring and 19 synthesized phenanthrenes was carried out on a diverse set of human liver (HepG2 and Hep3B), oral (Ca9-22), lung (A549) and breast (MEA-MB-231 and MCF7) cancer cell lines, and a human fetal lung fibroblast (MRC-5) cell line (Tables 1 and 2).
(§2) Compounds were tested against human liver (HepG2 and Hep3B), oral (Ca9-22), lung (A549), breast (MEA-MB-231 and MCF7) cancer cell lines, and the human fetal lung fibroblast (MRC-5) cell line using an established colorimetric MTT assay protocol. The absorbance was measured at 550 nm using a microplate reader. The IC50 is the concentration of agent that reduced cell growth by 50% under the experimental conditions.

The test system of another assay is Hep3B. The assay can be described thus: MTT cytotoxicity assay, Hep3B. The settings on record: Homo sapiens, Hep3B. As for the experimental part: as §1, §2
In general terms: Tetrazolium assays rely on reduction of a dye to a coloured formazan, in cell work by metabolically active cells.

The next assay deals with Ca9-22. As to the kind of experiment: MTT cytotoxicity assay, Ca9-22. The conditions noted are these: Homo sapiens. As for the experimental part: as §1, §2
The next assay concerns A549. The assay can be described thus: MTT cytotoxicity assay, A549. The conditions noted are these: Homo sapiens. As for the experimental part:
as §1, §2

The test system of another assay is MCF-7. The assay can be described thus: MTT cytotoxicity assay, MCF-7. The conditions noted are these: Homo sapiens; for IC50: MTT; for MCF-7 activity class (from IC50): MCF7, Table S3, read-out: Scale Exptl. (MCF-7 activity class). As for the experimental part:
as §1, §2
The pharmacophore modeling with Catalyst HypoGen was performed via Discovery Studio 2.1 (Accelrys, San Diego, CA, USA). Twenty-nine phenanthrene derivatives were collected from the natural plant, C. arisanensis, and from chemical synthesis (Figure 2). Cytotoxicity against MCF-7 cells was determined by the MTT assay and the concentration (µg/mL) of test compound which inhibited 50% of the cancer cells (IC50) was used in the generation of the pharmacophore model. An IC50 value of >20 µg/mL was defined as 20 µg/mL. All experimental IC50 values spanned about 2–3 orders of magnitude from 0.09 to 20 µg/mL. The 2D/3D structures of compounds were generated using ChemBioOffice 2008 (Cambridge Scientic Computing, Cambridge, Massachusetts, USA) and then optimized in a Dreiding force field. The conformational ensemble of each compound was generated using the best conformational analysis method based on a CHARMM force field with a 20 kcal/mol energy threshold above the global minimum. A maximum limit of 255 conformations was used to cover maximum conformational space. The best 3D arrangements of chemical functionalities should explain the activity variations among the 29 compounds. Thirty runs with different parameters were performed for the best pharmacophore hypothesis. Four chemical features, including hydrogen-bond acceptor (HBA), hydrogen-bond donor (HBD), hydrophobic (HYD), and aromatic ring (AR) features, were also tested during the building of pharmacophore hypotheses (Table S1; Text S1). The best hypotheses were selected via a correlation and a cost analysis in Catalyst HypoGen.

The subject of another assay is MDA-MB-231. The assay can be described thus: MTT cytotoxicity assay, MDA-MB-231. The conditions noted are these: Homo sapiens. As for the experimental part: as §1, §2
A further assay concerns MRC-5. The assay can be described thus: MTT cytotoxicity assay, MRC-5 fetal lung fibroblast. The conditions noted are these: Homo sapiens, normal fetal lung fibroblast. As for the experimental part:
as §1, §2

Setting [1] is: HepG2, Table 1, natural phenanthrenes.
The mark [2] stands for this setting: Ca9-22, Table 1, natural phenanthrenes.
Setting [3] is: A549, Table 1, natural phenanthrenes.
Setting [4] is: MCF7, Table 1, natural phenanthrenes.
The mark [5] stands for this setting: MDA-MB-231, Table 1, natural phenanthrenes.
[6] abbreviates: MRC5, Table 1, natural phenanthrenes.
[7] abbreviates: HepG2, Table 2, synthesized phenanthrenes.
The mark [8] stands for this setting: Table 2, synthesized phenanthrenes.
[9] abbreviates: Ca9-22, Table 2, synthesized phenanthrenes.
Setting [10] is: A549, Table 2, synthesized phenanthrenes.
The mark [11] stands for this setting: MCF7, Table 2, synthesized phenanthrenes.
[12] abbreviates: MDA-MB-231, Table 2, synthesized phenanthrenes.
Where [13] appears, read: MRC5, Table 2, synthesized phenanthrenes.

As for `COc1cc2c(cc1O)CCc1cc(O)cc(OC)c1-2` [CA-9], the IC50 (as a rule, the point on the concentration scale where inhibition reaches its midpoint) in the assay with HepG2 (setting [1]) is above 20 µg/mL; in the assay on Hep3B (Table 1, natural phenanthrenes), 12.9 ± 0.32 µg/mL (≈ 47.3 µM); in the assay with Ca9-22 (setting [2]) it was 13 ± 0.42 µg/mL (≈ 47.7 µM); with A549 (setting [3]) it was 18.1 ± 0.26 µg/mL (≈ 66.5 µM); with MCF-7 (setting [4]), 10.2 ± 0.27 µg/mL (≈ 37.6 µM); in the assay on MDA-MB-231 (setting [5]), 19.5 ± 0.58 µg/mL (≈ 71.5 µM). The same molecule yielded an IC50 in the assay with MRC-5 (setting [6]) above 20 µg/mL. Further, the MCF-7 activity class (from IC50) with MCF-7 lay in the range of 1 to 20 µg/mL.

Take `COc1cc(O)cc2c1-c1ccc(O)cc1CC2` [CA-10]: the IC50 in the assay with HepG2 (setting [1]) amounted to 7.52 µg/mL (≈ 31 µM); in the assay on Hep3B (Table 1, natural phenanthrenes), 7.24 ± 0.18 µg/mL (≈ 29.9 µM); with Ca9-22 (setting [2]), 6.11 ± 0.51 µg/mL (≈ 25.2 µM); in the assay on A549 (setting [3]), 7.46 ± 0.32 µg/mL (≈ 30.8 µM); in the assay on MCF-7 (setting [4]) it was 6.77 ± 0.12 µg/mL (≈ 27.9 µM); in the assay on MDA-MB-231 (setting [5]), 7.56 ± 0.03 µg/mL (≈ 31.2 µM). The molecule further yielded an IC50 in the assay on MRC-5 (setting [6]) of 16.4 ± 0.36 µg/mL (≈ 67.7 µM). Also, in the assay with MCF-7, the MCF-7 activity class (from IC50) was in the range of 1 to 20 µg/mL.

`COc1cc(O)c(-c2c(O)cc(OC)c3c2CCc2cc(O)ccc2-3)c2c1-c1ccc(O)cc1CC2` [CA-11]: the IC50 in the assay with HepG2 (setting [1]) was determined as 7.17 ± 0.35 µg/mL (≈ 14.9 µM); with Hep3B (Table 1, natural phenanthrenes), 6.28 ± 0.26 µg/mL (≈ 13 µM); in the assay on Ca9-22 (setting [2]), 5.86 ± 0.06 µg/mL (≈ 12.1 µM); with A549 (setting [3]), 7.4 ± 0.01 µg/mL (≈ 15.3 µM); in the assay on MCF-7 (setting [4]), 4.84 ± 0.89 µg/mL (≈ 10 µM); with MDA-MB-231 (setting [5]) it was 7.42 ± 0.03 µg/mL (≈ 15.4 µM). In the assay on MRC-5 (setting [6]), this molecule gave an IC50 of 13.2 ± 0.33 µg/mL (≈ 27.3 µM). Also, the MCF-7 activity class (from IC50) in the assay with MCF-7 was 1 to 20 µg/mL.

As to `COc1cc2ccc3c(OC)ccc(OC)c3c2c(OC)c1OC` [Compound 3a, 1,4,5,6,7-Pentamethoxy-phenanthrene], the IC50 in the assay with HepG2 (setting [7]) was above 20 µg/mL; in the assay with Hep3B (setting [8]), 15.55 ± 0.08 µg/mL (≈ 47.4 µM); with Ca9-22 (setting [9]), above 20 µg/mL; in the assay with A549 (setting [10]) it was above 20 µg/mL; with MCF-7 (setting [11]), above 20 µg/mL; with MDA-MB-231 (setting [12]), above 20 µg/mL. This molecule returned an IC50 with MRC-5 (setting [13]) above 20 µg/mL. The MCF-7 activity class (from IC50) with MCF-7 is above 20 µg/mL.

Take `COc1cc(OC)c2c(ccc3c(OC)ccc(OC)c32)c1` [Compound 3b, 1,4,5,7-Tetramethoxy-phenanthrene]: the IC50 in the assay with HepG2 (setting [7]) is above 20 µg/mL; in the assay with Hep3B (setting [8]), above 20 µg/mL; in the assay on Ca9-22 (setting [9]), 18.44 ± 0.11 µg/mL (≈ 61.8 µM); in the assay with A549 (setting [10]), above 20 µg/mL; in the assay on MCF-7 (setting [11]), above 20 µg/mL; in the assay with MDA-MB-231 (setting [12]), above 20 µg/mL. For the same molecule, the IC50 with MRC-5 (setting [13]) is above 20 µg/mL. Moreover, the MCF-7 activity class (from IC50) with MCF-7 is above 20 µg/mL.

Regarding `COc1cc2ccc3c(c2c(OC)c1OC)C(=O)C=CC3=O` [Compound 4a, 5,6,7-Trimethoxy-1,4-phenanthrenequinone], the IC50 amounted to 15.68 ± 0.01 µg/mL (≈ 52.6 µM) in the assay on HepG2 (setting [7]); 7.33 ± 0.03 µg/mL (≈ 24.6 µM) in the assay with Hep3B (setting [8]); 2.17 ± 0.01 µg/mL (≈ 7.27 µM) in the assay on Ca9-22 (setting [9]); 15.94 ± 0.01 µg/mL (≈ 53.4 µM) in the assay on A549 (setting [10]); 13.2 ± 0.38 µg/mL (≈ 44.2 µM) in the assay with MCF-7 (setting [11]); 4.6 ± 0.06 µg/mL (≈ 15.4 µM) in the assay on MDA-MB-231 (setting [12]). Half-maximal inhibition in the assay on MRC-5 (setting [13]) (IC50) required 11.9 ± 0.12 µg/mL (≈ 40 µM). Besides, the MCF-7 activity class (from IC50) in the assay on MCF-7 is 1 to 20 µg/mL.

With `COC1=CC(=O)c2ccc3c(-c4c(OC)c(OC)c(OC)c5c6c(ccc45)C(=O)C=C(OC)C6=O)c(OC)c(OC)c(OC)c3c2C1=O` [Compound 5d, 3,5,6,7,3′,5′,6,7′-Octamethoxy-[8,8′]bi-1,4,1′,4′-phenanthrenequinone], the half-maximal inhibitory concentration (IC50) in the assay with HepG2 (setting [7]) is 1.49 ± 0.01 µg/mL (≈ 2.28 µM); with Hep3B (setting [8]) it was 6.66 ± 0.13 µg/mL (≈ 10.2 µM); in the assay on Ca9-22 (setting [9]), 4.36 ± 0.03 µg/mL (≈ 6.66 µM); with A549 (setting [10]), 9.3 ± 0.48 µg/mL (≈ 14.2 µM); in the assay with MCF-7 (setting [11]), 13.78 ± 0.06 µg/mL (≈ 21.1 µM); with MDA-MB-231 (setting [12]), 14.8 ± 0.25 µg/mL (≈ 22.5 µM). Also, the IC50 in the assay with MRC-5 (setting [13]) was above 20 µg/mL. In the assay on MCF-7, the MCF-7 activity class (from IC50) lay within 1 to 20 µg/mL.

For `COC1=CC(=O)c2ccc3c(-c4c(OC)c(OC)c(OC)c5c6c(ccc45)C(=O)CC(OC)(OC)C6=O)c(OC)c(OC)c(OC)c3c2C1=O` [Compound 5e, 3,5,6,7,3′,3′,5′,6,7′-nonamethoxy-2′3′-dihydro-[8,8′]bi-1,4,1′,4′-phenanthrenequinone], the IC50 worked out at 1.24 ± 0.08 µg/mL (≈ 1.81 µM) in the assay on HepG2 (setting [7]); 7.38 ± 0.02 µg/mL (≈ 10.7 µM) in the assay on Hep3B (setting [8]); 6.21 ± 0.12 µg/mL (≈ 9.04 µM) in the assay on Ca9-22 (setting [9]); 7.49 ± 0.07 µg/mL (≈ 10.9 µM) in the assay with A549 (setting [10]); 9.4 µg/mL (≈ 13.7 µM) in the assay with MCF-7 (setting [11]); 6.74 ± 0.05 µg/mL (≈ 9.82 µM) in the assay with MDA-MB-231 (setting [12]). In the assay with MRC-5 (setting [13]), this molecule registered an IC50 of 8.11 ± 0.25 µg/mL (≈ 11.8 µM). Moreover, the MCF-7 activity class (from IC50) in the assay with MCF-7 is 1 to 20 µg/mL.

In the case of `COc1cc2ccc3c(OC)ccc(OC)c3c2c(O)c1O` [Compound 8a, 5,6-Dihydroxy-1,4,7-trimethoxy-phenanthrene], the IC50 in the assay on HepG2 (setting [7]) is 19.4 ± 0.56 µg/mL (≈ 64.5 µM); in the assay with Hep3B (setting [8]) it was 5.77 ± 0.63 µg/mL (≈ 19.2 µM); in the assay on Ca9-22 (setting [9]) it was 3.91 ± 0.07 µg/mL (≈ 13 µM); with A549 (setting [10]) it was above 20 µg/mL; in the assay on MCF-7 (setting [11]), 17 ± 0.42 µg/mL (≈ 56.6 µM); in the assay on MDA-MB-231 (setting [12]) it was 15.6 ± 1.52 µg/mL (≈ 52 µM). For the same molecule, in the assay with MRC-5 (setting [13]), the IC50 is above 20 µg/mL. The MCF-7 activity class (from IC50) in the assay on MCF-7 was in the range of 1 to 20 µg/mL.
